According to patent US8450354B2, “Substituted imidazo[1,2-b]pyridazine derivatives, pharmaceutical compositions, and methods of use as β-secretase inhibitors” (High Point Pharmaceuticals, LLC, priority 2010, dated 2013):

How the values were obtained:
[1] = Aβ Cell Based Assay (Aβ1-40 secretion, ELISA); design: species or system human; conditions: Homo sapiens, HEK293; HEK-APPwt cells, 6 hours incubation, reduction of Aβ1-40 secretion; asterisk = mean
Method: Aβ Cell Based Assay Procedure
In the following assay, the proteolytic activity of BACE in cells exposed to varying concentrations of a compound of interest is measured by observing the amount of Aβ1-40 secreted from HEK293 cells (Human Embryonic Kidney epithelial cell line) stably expressing wildtype human APP695 protein (HEK-APPwt cells).
HEK-APPwt cells were grown in high glucose DMEM (Dulbecco's Modified Eagles Medium SIGMA Cat. #D5796) supplemented with 25 mM HEPES (4-(2-hydroxyethyl)-1-piperazineethanesulfonic acid) (pH 7.4) (Invitrogen Cat. #15630-114), 0.1 mM NEAA (Non-essential Amino Acids) (BioWhittaker Cat. #13-114E), 10% fetal bovine serum (SIGMA Cat. #F4135) and 250 μg/mL hygromycin (Invitrogen Cat. #10687-010) in T-225 flasks at 37° C. with 5% CO2 and humidity control.
Test compounds were initially prepared in DMSO and diluted with DMEM media containing 2% FBS (Fetal bovine serum). Ten standard compound solutions were prepared having a range of concentrations. The standard compound solutions were used to determine the EC50 of the test compound. The range of concentrations chosen may depend on the compound's predicted potency.
To prepare cells for the assay, a flask containing HEK-APPwt cells were trypsinized briefly (1 mL trypsin), and once the cells detached, 4 mL of 10% FBS-DMEM was added to the flask. The detached cells were centrifuged at 900 rpm for 5 min to form a pellet.
The HEK-APPwt cell pellet was re-suspended with 10 mL DMEM media containing 2% FBS. 80 μL of the cell suspension was added to each well of a 96-well cell culture plate to give 100×10^4 cells/ml. 10 μL of a standard compound solution was added to each well of the 96-well cell culture plate followed by 10 μL of Alamar blue solution. The cells were incubated at 37° C. in a 5% CO2 incubator for 6 hours.
At the end of the incubation, the plates were removed from incubator, and the supernatant was collected. Aβ1-40 concentration in the medium was measured by using a commercial Aβ1-X ELISA kit (IBL, Japan Cat. #27729). Briefly, the ELISA plates were coated with an anti-human Aβ (N)(82E1) mouse IgG monoclonal antibody. A horseradish peroxidase conjugated anti-human Aβ11-28 mouse IgG monoclonal antibody was used for detection. The cell culture supernatant was diluted with EIA buffer+protease inhibitors (kit buffer containing protease inhibitors (1 mL PI/30 mL buffer)). A 100 μL aliquot of the diluted supernatant was added to each well of the ELISA plate and incubated for 6 hrs at 4° C. The ELISA plate was washed 8 times with phosphate buffered saline (PBS) containing 0.05% TWEEN 20.
A 100 μL of detection antibody was then added and incubated for 1 hour at 4° C. The plate was washed 8 times with PBS buffer containing 0.05% Tween 20 followed by addition of 100 μL of the chromogen tetramethylbenzidine (TMB). The plate was incubated in the dark at room temperature for about 30 min and a stop solution (1N H2SO4) was added.
The intensity of the color developed was measured at 450 nm. The optical density at 450 nm (OD450) is proportional to the concentration of human Aβ1-40 secreted by the cell. As a reference, N—[N-(3,5-difluorophenacetyl-L-alanyl)]—S-phenylglycine t-butyl ester (DAPT, a γ-secretase inhibitor) was used to indicate 100% inhibition of […]. Thus, the assay measures the ability of a compound of interest to reduce Aβ1-40 secretion. Compound potency is reported in Table 3 as the EC50 by calculating the percent inhibition at all concentration levels and the data were fit with non-linear curve fitting algorithm using GraphPad Prism.

BACE-1 enzyme = target: T1, BACE-1 enzyme (Homo sapiens, UniProt P56817); assay: BACE Fluorescence Resonance Energy Transfer (FRET) Assay; format: biochemical; conditions: pH 4-4.5, 30 min pre-incubation, about 1.5 hours reaction, asterisk = mean
T1 construct: purchased R & D Systems 931AS
Method: BACE Fluorescence Resonance Energy Transfer (FRET) Assay
In the following assay, the proteolytic activity of BACE is measured by observing cleavage of a fluorescent group from a peptide substrate containing a rhodamine fluorescent donor and a quenching acceptor.
The inhibitory activity of compounds of Formula (I) may be compared to a statine derived control inhibitor STA200 (MP Biomedical Cat. #STA-200). The cleavage reaction occurs when a BACE-1 substrate (Invitrogen, Cat. #P2986) was added to a reaction mixture containing BACE-1 enzyme (R & D Systems, Cat. #931AS) and allowed to proceed for about 1.5 hours. Fluorescence, used as a marker of BACE activity, is monitored using 540 nm excitation and 585 nm emission wavelengths (Envision, Perkin Elmer).
A typical assay reaction contains BACE-1 enzyme-in assay buffer (50 mM sodium acetate, pH 4-4.5, 0.01% CHAPS (3-[(3-Cholamidopropyl)dimethylammonio]-1-propanesulfonate), 0.0125% TritonX-100, 0.006% EDTA) which is pre-incubated for 30 minutes with test compound in 7.5% DMSO. The reaction is initiated with the addition of BACE-1 substrate in assay buffer and allowed to proceed for about 1.5 hours at room temperature. Assays are conducted in black 384-well microtiter plates and scanned at room temperature using 540 nm excitation and 585 nm emission wavelengths.
In some instances, the percent inhibition at a given concentration is reported instead of the IC50.

T1 sequence (P56817 46-457 limits assumed): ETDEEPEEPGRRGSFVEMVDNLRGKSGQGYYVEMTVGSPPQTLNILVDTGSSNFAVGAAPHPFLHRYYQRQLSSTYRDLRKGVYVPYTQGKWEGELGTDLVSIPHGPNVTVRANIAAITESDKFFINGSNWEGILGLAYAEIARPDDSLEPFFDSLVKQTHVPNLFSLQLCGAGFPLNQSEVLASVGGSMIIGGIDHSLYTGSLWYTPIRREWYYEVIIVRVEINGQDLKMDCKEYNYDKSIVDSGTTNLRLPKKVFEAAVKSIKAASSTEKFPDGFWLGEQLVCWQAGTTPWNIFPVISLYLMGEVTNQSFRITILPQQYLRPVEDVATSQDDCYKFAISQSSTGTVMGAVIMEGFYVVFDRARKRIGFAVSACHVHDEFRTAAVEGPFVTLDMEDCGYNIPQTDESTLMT

| EC50 [1] [µM] | IC50 (BACE-1 enzyme) [µM] | SMILES |
| --- | --- | --- |
| 0.11 | 0.376 | C[C@@H](O)[C@@H](C)Oc1ccc2nc(C(=O)Nc3nc4cc(-c5cc(F)cc(Cl)c5)ccc4[nH]3)cn2n1 [Example 146, 6-((1R,2R)-2-hydroxy-1-methyl-propoxy)-imidazo[1,2-b]pyridazine-2-carboxylic acid [5-(3-chloro-5-fluoro-phenyl)-1H-benzoimidazol-2-yl]-amide] |
| 1.41 | 0.222 | O=C(Nc1nc2cc(-c3cccc(C(F)(F)F)c3)ccc2[nH]1)c1cn2nc(OCCN3CCNC3=O)ccc2n1 [Example 26] |
| 0.12 | 0.372 | C[C@H](O)COc1ccc2nc(C(=O)Nc3nc4cc(-c5ccc(C(F)(F)F)c(Cl)c5)ccc4[nH]3)cn2n1 [Example 123, 6-((S)-2-Hydroxy-propoxy)-imidazo[1,2-b]pyridazine-2-carboxylic acid [5-(3-chloro-4-trifluoromethyl-phenyl)-1H-benzoimidazol-2-yl]-amide] |
| 2.5 | 0.313 | O=C(Nc1nc2cc(-c3cccc(OC(F)(F)F)c3)ccc2[nH]1)c1cn2nc(OCCN3CCCC3=O)ccc2n1 [Example 31] |
| 2.27 | 0.089 | CC1(C)CCC(c2ccc3[nH]c(NC(=O)c4cn5nc(N6CC[C@@H](O)C6)ccc5n4)nc3c2)CC1 [Example 85] |
| 0.78 | 0.189 | C[C@H](O)[C@@H](C)Oc1ccc2nc(C(=O)Nc3nc4cc(-c5cccc(C(F)(F)F)c5)ccc4[nH]3)cn2n1 [Example 99] |
| 0.89 | 0.357 | CC(C)[C@H](O)COc1ccc2nc(C(=O)Nc3nc4cc(-c5cc(F)cc(Cl)c5)ccc4[nH]3)cn2n1 [Example 108] |
| 1.06 | 0.318 | C[C@@H](O)CCOc1ccc2nc(C(=O)Nc3nc4cc(-c5cc(F)cc(Cl)c5)ccc4[nH]3)cn2n1 [Example 118] |
| 0.86 | 0.139 | CC[C@H](O)COc1ccc2nc(C(=O)Nc3nc4cc(-c5cc(F)cc(Cl)c5)ccc4[nH]3)cn2n1 [Example 106] |
| 0.48 | 0.251 | CC(C)(O)COc1ccc2nc(C(=O)Nc3nc4cc(-c5cccc(OC(F)(F)F)c5)ccc4[nH]3)cn2n1 [Example 112] |
| 2.58 | 0.314 | O=C(Nc1nc2cc(-c3cccc(OC(F)(F)F)c3)ccc2[nH]1)c1cn2nc(OCCn3cncn3)ccc2n1 [Example 29] |
| 1.71 | 0.528 | O=C(Nc1nc2cc(-c3cc(F)cc(Cl)c3)ccc2[nH]1)c1cn2nc(OCCCO)ccc2n1 [Example 113] |
| 0.58 | 0.262 | O=C(Nc1nc2cc(-c3cccc(C(F)(F)F)c3)ccc2[nH]1)c1cn2nc(OCCN3CCOCC3)ccc2n1 [Example 27, 6-(2-Morpholin-4-yl-ethoxy)-imidazol[1,2-b]pyridazine-2-carboxylic acid [5-(3-trifluoromethyl-phenyl)-1H-benzoimidazol-2-yl]-amide] |
| 1.71 | 0.191 | CC1(C)CCC(c2ccc3[nH]c(NC(=O)c4cn5nc(N6CCCC(O)C6)ccc5n4)nc3c2)CC1 (stereo not shown) [Example 84] |
| 0.77 | 0.298 | C[C@H](O)CCOc1ccc2nc(C(=O)Nc3nc4cc(-c5cc(F)cc(Cl)c5)ccc4[nH]3)cn2n1 [Example 119] |
| 0.47 | 0.344 | O=C(Nc1nc2cc(-c3cc(F)cc(Cl)c3)ccc2[nH]1)c1cn2nc(OCC3(CO)CCC3)ccc2n1 [Example 132] |

| EC50 [1] [µM] | IC50 (BACE-1 enzyme) [µM] | SMILES |
| --- | --- | --- |
| 0.71 | 0.163 | CCCC[C@H](O)COc1ccc2nc(C(=O)Nc3nc4cc(-c5cc(F)cc(Cl)c5)ccc4[nH]3)cn2n1 [Example 127] |
| 1.47 | 0.18 | CC1(C)CCC(c2ccc3[nH]c(NC(=O)c4cn5nc(N6CCC(O)CC6)ccc5n4)nc3c2)CC1 [Example 83] |
| 0.79 | 0.215 | CC(C)[C@@H](O)COc1ccc2nc(C(=O)Nc3nc4cc(-c5cc(F)cc(Cl)c5)ccc4[nH]3)cn2n1 [Example 107] |
| 1.17 | 0.136 | C[C@H](O)[C@H](C)Oc1ccc2nc(C(=O)Nc3nc4cc(-c5cccc(C(F)(F)F)c5)ccc4[nH]3)cn2n1 [Example 101] |
| 2.62 | 0.232 | CN1CCN(CCOc2ccc3nc(C(=O)Nc4nc5cc(-c6cccc(C(F)(F)F)c6)ccc5[nH]4)cn3n2)CC1 [Example 41] |
| 0.7 | 0.225 | COc1ccc2nc(C(=O)Nc3nc4cc(-c5cc(F)cc(Cl)c5)ccc4[nH]3)cn2n1 [Example 7] |
| 1.31 | 0.198 | O=C(Nc1nc2cc(-c3cccc(C(F)(F)F)c3)ccc2[nH]1)c1cn2nc(OCCn3cncn3)ccc2n1 [Example 45] |
| 0.87 | 0.211 | O=C(Nc1nc2cc(-c3cc(F)cc(Cl)c3)ccc2[nH]1)c1cn2nc(OCCN3CCCC3=O)ccc2n1 [Example 54] |
| 0.97 | 0.22 | O=C(Nc1nc2cc(-c3ccc(Cl)c(C(F)(F)F)c3)ccc2[nH]1)c1cn2nc(OCCN3CCOCC3)ccc2n1 [Example 64] |
| 0.45 | 0.117 | COC[C@H](COc1ccc2nc(C(=O)Nc3nc4cc(-c5cccc(C(F)(F)F)c5)ccc4[nH]3)cn2n1)OC [Example 135] |
| 2.62 | 0.216 | O=C(Nc1nc2cc(-c3cc(F)cc(Cl)c3)ccc2[nH]1)c1cn2nc(OCCN3CCCCCC3)ccc2n1 [Example 53] |
| 0.44 | 0.248 | CC1(COc2ccc3nc(C(=O)Nc4nc5cc(-c6cc(F)cc(Cl)c6)ccc5[nH]4)cn3n2)COC1 [Example 98] |
| 0.23 | 0.169 | O=C(Nc1nc2cc(-c3cc(F)cc(Cl)c3)ccc2[nH]1)c1cn2nc(OCCCCO)ccc2n1 [Example 130] |
| 0.15 | 0.245 | O=C(Nc1nc2cc(-c3ccc(F)c(Cl)c3)ccc2[nH]1)c1cn2nc(OCCO)ccc2n1 [Example 131, 6-(2-Hydroxy-ethoxy)-imidazo[1,2-b]pyridazine-2-carboxylic acid [5-(3-chloro-4-fluoro-phenyl)-1H-benzoimidazol-2-yl]-amide] |
| 0.59 | 0.234 | O=C(Nc1nc2cc(-c3cccc(OC(F)(F)F)c3)ccc2[nH]1)c1cn2nc(OCCN3CCOCC3)ccc2n1 [Example 32] |

| SMILES | EC50 [1] [µM] | IC50 (BACE-1 enzyme) [µM] |
| --- | --- | --- |
| C[C@H](C[C@@H](C)O)Oc1ccc2nc(C(=O)Nc3nc4cc(-c5cccc(C(F)(F)F)c5)ccc4[nH]3)cn2n1 [Example 120, 6-((1R,3R)-3-hydroxy-1-methyl-butoxy)-imidazo[1,2-b]pyridazine-2-carboxylic acid [5-(3-trifluoromethyl-phenyl)-1H-benzoimidazol-2-yl]-amide] | 0.07 | 0.455 |
